According to patent publication US20240077423A1, “A TRANSCRIPTIONAL REGULATOR SPECIFICALLY RESPONDING TO D-2-HYDROXYGLUTARATE AND APPLICATION THEREOF” (SHANDONG UNIVERSITY, priority 2021, published 2024):
“Also recorded” adds a separate entry of the source.

T1: DhdR (Achromobacter denitrificans NBRC 15125)
T1 chain: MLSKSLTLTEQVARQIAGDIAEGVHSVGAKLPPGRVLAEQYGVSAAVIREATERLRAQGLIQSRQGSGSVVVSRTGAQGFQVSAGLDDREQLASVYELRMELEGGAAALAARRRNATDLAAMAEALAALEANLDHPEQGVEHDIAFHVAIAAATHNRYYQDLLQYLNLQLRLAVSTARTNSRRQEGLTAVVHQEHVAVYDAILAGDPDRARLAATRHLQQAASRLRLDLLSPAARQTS


Assays:
[1] = system: binding of DhdR to dhdO; assay: Analysis of DhdR effector by electrophoretic mobility shift assays; parameters: species or system Achromobacter denitrificans NBRC 15125; conditions: 40 mM compound, 70 nM DhdR, dhdO target DNA, EMSA, FIG. 2
Procedure: DhdR is incubated with different compounds (D-2-HG, L-2-HG, D-malate, D-lactate, glutarate, 2-ketoglutarate, or pyruvate) respectively. Then, the target DNA fragment dhdO is added. The influence on the binding capacity of DhdR and the target DNA fragment dhdO in the presence of the different compounds is analyzed through electrophoresis separation, staining, and imaging.
(§1) The dhdO nucleotide fragment obtained in step (2) above was diluted to 100 nM using binding buffer, and the purified DhdR protein was diluted to 2000 nM. 70 nM purified DhdR protein was first incubated with 40 mM different compounds (D-2-HG, L-2-HG, D-malate, D-lactate, glutarate, 2-ketoglutarate, or pyruvate) at 30° C. for 15 minutes in 18 μL binding buffer. Subsequently, 2 μL of 100 nM dhdO was added and incubated at 30° C. for another 30 min. 10 μL of the sample was analyzed by electrophoresis with 6% native polyacrylamide at 170 V for 45 min on ice. The gel was then stained with SYBR Green I for 30 min avoiding light and photographed by gel imager. […] DhdR can bind to dhdO in the absence of D-2-HG. However, when D-2-HG is present, DhdR will be dissociated from dhdO.

[2] = biological target: T1, DhdR; assay: EMSA; 70 nM DhdR, 10 nM dhdO, 30 C; 40 mM D-2-HG inhibits binding; L-2-HG, D-malate, D-lactate, glutarate, 2-ketoglutarate, pyruvate do not; conditions: tags: His6 (pETDuet-1, E. coli BL21(DE3))
Procedure: as §1

[3] = biological target: T1, DhdR; assay: AlphaScreen-type bead luminescence, HBS-P pH 7.4; D-2-HG dissociates complex, LOD 0.8 uM, range about 2-50 uM; conditions: tags: His6 (pETDuet-1, E. coli BL21(DE3)); label: 5'-biotin
Procedure: (§2) According to the method of detecting the luminescence signal described in (2), a gradient D-2-HG solution dissolved in HBS-P buffer was used and mixed with 5 μL of 1 nM biotinylated dhdO fragment, 0.3 nM DhdR protein, donor beads, and acceptor beads. The luminescence signal was detected to plot the dose-response curves.
The combination of the 1 nM biotinylated dhdO fragment, 0.3 nM DhdR protein, 20 μg/mL donor beads, and 20 μg/mL acceptor beads was named as D-2-HG biosensor BD2HG-0, with a limit of detection of 0.8 μM and a detection range of about 2-50 μM.

[4] = biological target: T1, DhdR; assay: AlphaScreen-type bead luminescence, HBS-P pH 7.4; D-2-HG dissociates complex, LOD 0.08 uM, range about 0.3-20 uM; conditions: tags: His6 (pETDuet-1, E. coli BL21(DE3)); label: 5'-biotin
Procedure: 5 μL biotinylated dhdO-1 fragment, 5 μL DhdR protein and 5 μL solution containing D-2-HG were added into a white 384-well plate, mixed evenly by the oscillation function of a microplate reader, and incubated in dark at room temperature for 30 minutes. Then, 5 μL acceptor beads (20 μg/mL) were added and incubated in dark at room temperature for 30 minutes. Finally, 5 μL donor beads (20 μg/mL) were added and incubated in dark at room temperature for 60 minutes. The luminescence signal was measured by EnSight Multimode Plate Reader. The excitation wavelength was 680 nm and the detection wavelength was 520-620 nm. The background signal without a D-2-HG biosensor was deducted at each emission wavelength.
as §2, with “dhdO-1” for “dhdO”

Molecule | effect on the binding of DhdR to dhdO [1] | also measured
O=C(O)CCC(=O)C(=O)O [2-ketoglutarate] | could not interfere with the binding of DhdR to dhdO | 
O=C(O)CC[C@@H](O)C(=O)O [D-2-HG, D-2-Hydroxyglutarate] | prevents the binding of DhdR and the target DNA fragment dhdO; also recorded: could inhibit the binding of DhdR to dhdO | 
C[C@@H](O)C(=O)O [D-lactate] | could not interfere with the binding of DhdR to dhdO | 
O=C(O)C[C@@H](O)C(=O)O [D-malate] | could not interfere with the binding of DhdR to dhdO | 
O=C(O)CC[C@H](O)C(=O)O [L-2-HG, L-2-hydroxyglutarate] | could not interfere with the binding of DhdR to dhdO | 
dhdO (dsDNA) DNA 1: GAGTCGCGGCGGCGCGCCGGATCCGGGCTGTCATTGTCAAAAGTTATCAGATAACCTGAAAAGTAGGCCTATAATCGGCGC DNA 2: GCGCCGATTATAGGCCTACTTTTCAGGTTATCTGATAACTTTTGACAATGACAGCCCGGATCCGGCGCGCCGCCGCGACTC |  | binding result [2]: binds
biotinylated dhdO (dsDNA) DNA 1: GAGTCGCGGCGGCGCGCCGGATCCGGGCTGTCATTGTCAAAAGTTATCAGATAACCTGAAAAGTAGGCCTATAATCGGCGC DNA 2: GCGCCGATTATAGGCCTACTTTTCAGGTTATCTGATAACTTTTGACAATGACAGCCCGGATCCGGCGCGCCGCCGCGACTC |  | binding result [3]: binds
biotinylated dhdO-1 (dsDNA) DNA 1: GAGTCGCGGCGGCGCGCCGGATCCGGGCTGTCATTGTCAAAATTTATCAGATAACCTGAAAAGTAGGCCTATAATCGGCGC DNA 2: GCGCCGATTATAGGCCTACTTTTCAGGTTATCTGATAAATTTTGACAATGACAGCCCGGATCCGGCGCGCCGCCGCGACTC |  | binding result [4]: binds
